# Test results published in patent US10246456B2, “IRAK4 inhibiting agents” (BIOGEN MA INC., priority 2014, dated 2019).
# Biological target: IRAK4 (Homo sapiens (Human), UniProt Q9NWZ3)
# Test: IRAK-4 AlphaScreen biochemical kinase assay
# Settings: 1 nM IRAK4, 1 mM ATP, 3.5 h at RT
# Summary of the method: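 AlphaScreen read-out: streptavidin beads bind the biotinylated peptide and protein A beads bind the anti-phosphothreonine antibody, so energy transfer reports phosphorylation of the peptide. The kinase is human IRAK-4.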
# IRAK4, sequence (Q9NWZ3 whole entry, species assumed): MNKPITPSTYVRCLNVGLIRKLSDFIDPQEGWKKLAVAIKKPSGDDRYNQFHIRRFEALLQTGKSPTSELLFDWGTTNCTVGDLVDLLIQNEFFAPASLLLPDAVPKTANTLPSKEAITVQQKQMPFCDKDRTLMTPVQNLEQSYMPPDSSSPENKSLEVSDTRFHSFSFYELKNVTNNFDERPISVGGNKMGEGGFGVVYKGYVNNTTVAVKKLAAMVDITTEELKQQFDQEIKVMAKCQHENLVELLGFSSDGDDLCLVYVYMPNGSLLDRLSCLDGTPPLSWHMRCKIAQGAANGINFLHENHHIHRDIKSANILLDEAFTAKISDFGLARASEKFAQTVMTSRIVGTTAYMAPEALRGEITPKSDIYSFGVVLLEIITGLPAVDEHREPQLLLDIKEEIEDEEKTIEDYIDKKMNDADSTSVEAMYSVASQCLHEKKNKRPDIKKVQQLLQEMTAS
row,IC50,Compound
1,< 100 nM,"CCC[C@H](N)c1cccc(-c2cc([C@@H]3CC[C@@H](C)O3)c3cnn(-c4cccc(CO)n4)c3c2)n1 [Example 479, (6-(6-(6-((S)-1-aminobutyl)pyridin-2-yl)-4-((2S,5R)-5-methyltetrahydrofuran-2-yl)-1H-indazol-1-yl)pyridin-2-yl)methanol]"
2,< 100 nM,"CCC[C@H](N)c1cccc(-c2cc(OCCOC)c3cnn(-c4cncc(CO)n4)c3c2)n1 [Example 480, (S)-(6-(6-(6-(1-aminobutyl)pyridin-2-yl)-4-(2-methoxyethoxy)-1H-indazol-1-yl)pyrazin-2-yl)methanol]"
3,< 100 nM,"COCCOc1cc(-c2cccc([C@H](C)N)n2)cc2c1cnn2-c1cncc(CO)n1 [Example 481, (S)-(6-(6-(6-(1-aminoethyl)pyridin-2-yl)-4-(2-methoxyethoxy)-1H-indazol-1-yl)pyrazin-2-yl)methanol]"
4,< 100 nM,"CC[C@H](N)c1cccc(-c2cc(OCCOC)c3cnn(-c4cncc(CO)n4)c3c2)n1 [Example 482, (S)-(6-(6-(6-(1-aminopropyl)pyridin-2-yl)-4-(2-methoxyethoxy)-1H-indazol-1-yl)pyrazin-2-yl)methanol]"
5,< 100 nM,"COCCOc1cc(-c2cccc([C@@H](N)CCCO)n2)cc2c1cnn2-c1cccc(CO)n1 [Example 484, (S)-4-amino-4-(6-(1-(6-(hydroxymethyl)pyridin-2-yl)-4-(2-methoxyethoxy)-1H-indazol-6-yl)pyridin-2-yl)butan-1-ol]"
6,100 to 1000 nM,"Cc1cccc(-n2ncc3ccc(-c4cccc(C(N)CC(F)(F)F)n4)cc32)n1 (stereo not drawn) [Example 551, 3,3,3-trifluoro-1-(6-(1-(6-methylpyridin-2-yl)-1H-indazol-6-yl)pyridin-2-yl)propan-1-amine]"
7,100 to 1000 nM,"Cc1cccc(-n2ncc3c(-c4nnc(C)o4)cc(-c4cccc(C(C)N)n4)cc32)n1 (stereo not drawn) [Example 557, 1-(6-(4-(5-methyl-1,3,4-oxadiazol-2-yl)-1-(6-methylpyridin-2-yl)-1H-indazol-6-yl)pyridin-2-yl)ethanamine]"
8,100 to 1000 nM,"Cc1cncc(-n2ncc3ccc(-c4cccc(C(C)N)n4)cc32)n1 (stereo not drawn) [Example 559, 1-(6-(1-(6-methylpyrazin-2-yl)-1H-indazol-6-yl)pyridin-2-yl)ethanamine]"
9,1000 to 10000 nM,"N#CC(N)c1cccc(-c2ccc3cnn(-c4cccc(CO)n4)c3c2)n1 (stereo not drawn) [Example 560, 2-amino-2-(6-(1-(6-(hydroxymethyl)pyridin-2-yl)-1H-indazol-6-yl)pyridin-2-yl)acetonitrile]"
10,100 to 1000 nM,"NC(=O)C(N)c1cccc(-c2ccc3cnn(-c4cccc(CO)n4)c3c2)n1 (stereo not drawn) [Example 561, 2-amino-2-(6-(1-(6-(hydroxymethyl)pyridin-2-yl)-1H-indazol-6-yl)pyridin-2-yl)acetamide]"
11,1000 to 10000 nM,"CC(N)c1cccc(-c2ccc3cnn(-c4ccnc(C#N)n4)c3c2)n1 (stereo not drawn) [Example 562, 4-(6-(6-(1-aminoethyl)pyridin-2-yl)-1H-indazol-1-yl)pyrimidine-2-carbonitrile]"
12,100 to 1000 nM,"CC(N)c1cccc(-c2ccc3cnn(-c4cccc(CO)n4)c3c2)c1 (stereo not drawn) [Example 563, (6-(6-(3-(1-aminoethyl)phenyl)-1H-indazol-1-yl)pyridin-2-yl)methanol]"
13,100 to 1000 nM,"CC(N)c1ccc(F)c(-c2ccc3cnn(-c4cccc(CO)n4)c3c2)n1 (stereo not drawn) [Example 564, (6-(6-(6-(1-aminoethyl)-3-fluoropyridin-2-yl)-1H-indazol-1-yl)pyridin-2-yl)methanol]"
14,100 to 1000 nM,"C[C@H](N)c1cccc(-c2ccc3cnn(-c4nc(CO)ccc4F)c3c2)n1 [Example 565, (S)-(6-(6-(6-(1-aminoethyl)pyridin-2-yl)-1H-indazol-1-yl)-5-fluoropyridin-2-yl)methanol]"
15,100 to 1000 nM,"CCC[C@@H](c1cccc(-c2ccc3cnn(-c4cccc(CO)n4)c3c2)n1)N(C)C [Example 566, (S)-(6-(6-(6-(1-(dimethylamino)butyl)pyridin-2-yl)-1H-indazol-1-yl)pyridin-2-yl)methanol]"
16,100 to 1000 nM,"CNC(=O)C(N)c1cccc(-c2ccc3cnn(-c4cccc(CO)n4)c3c2)n1 (stereo not drawn) [Example 567, 2-amino-2-(6-(1-(6-(hydroxymethyl)pyridin-2-yl)-1H-indazol-6-yl)pyridin-2-yl)-N-methylacetamide]"
17,1000 to 10000 nM,"C[S+]([O-])CC(N)c1cccc(-c2ccc3cnn(-c4cccc(CO)n4)c3c2)n1 (stereo not drawn) [Example 568, (6-(6-(6-(1-amino-2-(methylsulfinyl)ethyl)pyridin-2-yl)-1H-indazol-1-yl)pyridin-2-yl)methanol]"
18,< 100 nM,"CCC[C@H](N)c1cccc(-c2cc(C(C)OC)c3cnn(-c4cccc(CO)n4)c3c2)n1 (stereo partly drawn) [Example 569, (6-(6-(6-((S)-1-aminobutyl)pyridin-2-yl)-4-(1-methoxyethyl)-1H-indazol-1-yl)pyridin-2-yl)methanol]"
19,< 100 nM,"CCC[C@H](N)c1cccc(-c2cc(Cl)c3cnn(-c4nccc(C(F)F)n4)c3c2)n1 [Example 570, (S)-1-(6-(4-chloro-1-(4-(difluoromethyl)pyrimidin-2-yl)-1H-indazol-6-yl)pyridin-2-yl)butan-1-amine]"
20,100 to 1000 nM,"OCc1cccc(-n2ncc3ccc(-c4cccc(C5CCCN5)n4)cc32)n1 (stereo not drawn) [Example 571, (6-(6-(6-(pyrrolidin-2-yl)pyridin-2-yl)-1H-indazol-1-yl)pyridin-2-yl)methanol]"
21,< 100 nM,"CCC[C@H](N)c1cccc(-c2cc(OC)c3cnn(-c4nccc(C(F)F)n4)c3c2)n1 [Example 572, (S)-1-(6-(1-(4-(difluoromethyl)pyrimidin-2-yl)-4-methoxy-1H-indazol-6-yl)pyridin-2-yl)butan-1-amine]"
22,< 100 nM,"CCC[C@H](N)c1cccc(-c2cc([C@@H]3CCCN3)c3cnn(-c4cccc(CO)n4)c3c2)n1 [Example 573, (6-(6-(6-((S)-1-aminobutyl)pyridin-2-yl)-4-((S)-pyrrolidin-2-yl)-1H-indazol-1-yl)pyridin-2-yl)methanol]"
23,< 100 nM,"CCC[C@H](N)c1ccnc(-c2cc(OC)c3cnn(-c4cccc(CO)n4)c3c2)n1 [Example 574, (S)-(6-(6-(4-(1-aminobutyl)pyrimidin-2-yl)-4-methoxy-1H-indazol-1-yl)pyridin-2-yl)methanol]"
24,< 100 nM,"COCCC[C@H](N)c1cccc(-c2cc(-c3ccn(C)n3)c3cnn(-c4cccc(CO)n4)c3c2)n1 [Example 575, (S)-(6-(6-(6-(1-amino-4-methoxybutyl)pyridin-2-yl)-4-(1-methyl-1H-pyrazol-3-yl)-1H-indazol-1-yl)pyridin-2-yl)methanol]"
25,< 100 nM,"CCC[C@@H](N)c1ccnc(-c2cc(OC)c3cnn(-c4cccc(CO)n4)c3c2)n1 [Example 576, (R)-(6-(6-(4-(1-aminobutyl)pyrimidin-2-yl)-4-methoxy-1H-indazol-1-yl)pyridin-2-yl)methanol]"
26,< 100 nM,"Cc1cnc(-c2cc(-c3cccc([C@H](C)N)n3)cc3c2cnn3-c2cccc(CO)n2)o1 [Example 577, (S)-(6-(6-(6-(1-aminoethyl)pyridin-2-yl)-4-(5-methyloxazol-2-yl)-1H-indazol-1-yl)pyridin-2-yl)methanol]"
27,< 100 nM,"CCC[C@H](N)c1cccc(-c2cc(-n3ccnn3)c3cnn(-c4cccc(CO)n4)c3c2)n1 [Example 578, (S)-(6-(6-(6-(1-aminobutyl)pyridin-2-yl)-4-(1H-1,2,3-triazol-1-yl)-1H-indazol-1-yl)pyridin-2-yl)methanol]"
